Reference: article PMC11665553, “12-Lipoxygenase inhibition delays onset of autoimmune diabetes in human gene replacement mice” (JCI Insight, 2024)

Test: Pharmacokinetics after single p.o. dose in C57BL/6J mice (plasma LC-MS/MS)
[1] = C57BL/6J, mouse, plasma, po, 30 mg/kg

Compound: COc1cccc(CNc2ccc(S(=O)(=O)Nc3nc4ccccc4s3)cc2)c1O [VLX-1005]
- AUC%extrap_obs (C57BL/6J mice, 30 mg/kg p.o., mean ± SD): 0.342 ± 0.133%
- AUC(0-inf) [1]: 15100 ng·h/mL
- AUC(0-t) [1]: 15000 ng·h/mL
- Cmax [1]: 13300 ng/mL
- MRT inf [1]: 2.57 ± 0.38 h
- half-life [1]: 3.24 ± 0.07 h
